Assay results reported in patent publication US12091393B2, “Small molecule vaccine adjuvant for enhancing or prolonging immune response” (The Regents of the University of California, priority 2018, dated 2024).
Read-outs that look alike come from different tables or passages of the source.

Legend:
NF-κB = assay: Measurement of NF-κB activation using THP1-Blue NF-κB cells (SEAP); assay type: cell-based; details: for NF-κB activity (SAR discussion, in words): evaluated in both the presence and absence of LPS; for activity at 5 µM: 20 h, two point normalized, compound 1 as 200%
THP-1 cells = assay: Cell viability assay (MTT); assay type: cell-based; details: compound 5 μM alone, 18 h, normalized to DMSO as 100%
Method: THP-1 cells were plated in 96-well plates (10^5 cells/well) in 100 μL RPMI supplemented with 10% FBS, 100 U/mL penicillin and 100 μg/ml streptomycin. Compounds were dissolved in DMSO at 1 mM stock solution and were further diluted to 10 μM in the assay medium. 100 μL of this solution was added to the cells to obtain a final compound concentration of 5 μM ([…]). After 18 h incubation, a solution of MTT in assay media (0.5 mg/mL) was added to each well and further incubated for 4 to 6 h, followed by addition of cell lysis buffer (15% w/v SDS and 0.12% v/v 12N HCl aqueous solution), incubated overnight, and then absorbance measured at 570 nm using 650 nm as reference using Tecan Infinite M200 plate reader.

[1] = compound 5 μM + LPS, LPS (10 ng/mL) as 100%, read-out: NF-κB SEAP Compound + LPS % Activation
[2] = compound 5 μM alone, LPS or DMSO as 100%, read-out: NF-κB SEAP Compound alone % Activation

| SMILES | NF-κB activity (SAR discussion, in words) (NF-κB) | activity at 5 µM (NF-κB; [1]) | activity at 5 µM (NF-κB; [2]) | MTT Compound alone % Viability (THP-1 cells) |
| --- | --- | --- | --- | --- |
| CCCC#Cc1sc(NC(=O)c2ccc(S(=O)(=O)N3CCC(CCC)CC3)cc2)nc1-c1cc(C)ccc1Br [Compound 65, N-(4-(2-bromo-5-methylphenyl)-5-(pent-1-yn-1-yl)thiazol-2-yl)-4-((4-propylpiperidin-1-yl)sulfonyl)benzamide] | very potent and showed better potency than compound 1 |  |  |  |
| Cc1cccc(C)c1-c1csc(NC(=O)c2ccc(S(=O)(=O)N3CCCCC3)cc2)n1 [Compound 12p, N-(4-(2,6-dimethylphenyl)thiazol-2-yl)-4-(piperidin-1-ylsulfonyl)benzamide] | retained activity | 209% | 185% | 99.64% |
| CCOc1sc(NC(=O)c2ccc(S(=O)(=O)N3CCCCC3)cc2)nc1-c1cc(C)ccc1C [Compound 18l, N-(4-(2,5-dimethylphenyl)-5-ethoxythiazol-2-yl)-4-(piperidin-1-ylsulfonyl)benzamide] | partial activity | 111% | 104% |  |
| Cc1ccc(C)c(-c2cnc(NC(=O)c3ccc(S(=O)(=O)N4CCCCC4)cc3)s2)c1 [Compound 18e, N-(5-(2,5-dimethylphenyl)thiazol-2-yl)-4-(piperidin-1-ylsulfonyl)benzamide] | none of these molecules that replaced the thiazole functionality were active | 95.1% | 98.3% |  |
| O=C(Nc1nc(-c2cccc3ccccc23)cs1)c1ccc(S(=O)(=O)N2CCCCC2)cc1 [Compound 12q, N-(4-(naphthalen-1-yl)thiazol-2-yl)-4-(piperidin-1-ylsulfonyl)benzamide] | equally potent | 200% | 198% | 92.71% |
| Cc1ccc(C)c(-c2nc(NC(=O)c3ccc(S(=O)(=O)N4CCCCC4)cc3)sc2-c2ccccc2)c1 [Compound 18i, N-(4-(2,5-dimethylphenyl)-5-phenylthiazol-2-yl)-4-(piperidin-1-ylsulfonyl)benzamide] | completely inactive | 98.4% | 98.3% |  |
| CC(C)(C)c1csc(NC(=O)c2ccc(S(=O)(=O)N3CCCCC3)cc2)n1 [Compound 12k, N-(4-(tert-butyl)thiazol-2-yl)-4-(piperidin-1-ylsulfonyl)benzamide] | None of these molecules had any NF-κB activity | 94.1% | 99.5% | 127.74% |
| C#CCN(C(=O)c1ccc(S(=O)(=O)N2CCCCC2)cc1)c1nc(-c2cc(C)ccc2C)cs1 [Compound 34d, N-(4-(2,5-dimethylphenyl)thiazol-2-yl)-4-(piperidin-1-ylsulfonyl)-N-(prop-2-yn-1-yl)benzamide] | inactive | 97.7% | 101% |  |
| Cc1ccc(C)c(-c2nnc(NC(=O)c3ccc(S(=O)(=O)N4CCCCC4)cc3)s2)c1 [Compound 18f, N-(5-(2,5-dimethylphenyl)-1,3,4-thiadiazol-2-yl)-4-(piperidin-1-ylsulfonyl)benzamide] | none of these molecules that replaced the thiazole functionality were active | 148% | 99.7% | 89.80% |
| Cc1ccc(C)c(-c2csc(NC(=O)c3ccc(S(=O)(=O)N4CCCCC4)s3)n2)c1 [Compound 46c, N-(4-(2,5-dimethylphenyl)thiazol-2-yl)-5-(piperidin-1-ylsulfonyl)thiophene-2-carboxamide] | none of these modifications at site D or E were tolerated | 97.2% | 106% |  |
| CCc1ccc(C)c(-c2csc(NC(=O)c3ccc(S(=O)(=O)N4CCCCC4)cc3)n2)c1 [Compound 12u, N-(4-(5-ethyl-2-methylphenyl)thiazol-2-yl)-4-(piperidin-1-ylsulfonyl)benzamide] | resulted in activity | 200% | 216% |  |
